Like-named read-outs stand apart in the source and are kept apart here.
Molecular target: T1, F508del (Homo sapiens, UniProt P13569, DEL508-508)
T1 construct: expressed in transfected cells
Test: Protocol 2: FRET membrane potential optical assay (VIPR), identification of correction compounds
Assay type: cell-based
Details: F508del CFTR modulator activity, compounds of Table 1
Summary of the method: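 NIH3T3 mouse fibroblasts stably expressing F508del were treated with test compound for 16 hrs at 37° C. in serum-free medium; 27° C. incubation served as positive control. F508del was activated with 10 μM forskolin plus 20 μM genistein in Cl^−-free medium, and Cl^− efflux-driven depolarization was read by DiSBAC2(3)/CC2-DMPE FRET.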

T1 sequence (P13569 with tags, fused parts or gaps DEL508-508): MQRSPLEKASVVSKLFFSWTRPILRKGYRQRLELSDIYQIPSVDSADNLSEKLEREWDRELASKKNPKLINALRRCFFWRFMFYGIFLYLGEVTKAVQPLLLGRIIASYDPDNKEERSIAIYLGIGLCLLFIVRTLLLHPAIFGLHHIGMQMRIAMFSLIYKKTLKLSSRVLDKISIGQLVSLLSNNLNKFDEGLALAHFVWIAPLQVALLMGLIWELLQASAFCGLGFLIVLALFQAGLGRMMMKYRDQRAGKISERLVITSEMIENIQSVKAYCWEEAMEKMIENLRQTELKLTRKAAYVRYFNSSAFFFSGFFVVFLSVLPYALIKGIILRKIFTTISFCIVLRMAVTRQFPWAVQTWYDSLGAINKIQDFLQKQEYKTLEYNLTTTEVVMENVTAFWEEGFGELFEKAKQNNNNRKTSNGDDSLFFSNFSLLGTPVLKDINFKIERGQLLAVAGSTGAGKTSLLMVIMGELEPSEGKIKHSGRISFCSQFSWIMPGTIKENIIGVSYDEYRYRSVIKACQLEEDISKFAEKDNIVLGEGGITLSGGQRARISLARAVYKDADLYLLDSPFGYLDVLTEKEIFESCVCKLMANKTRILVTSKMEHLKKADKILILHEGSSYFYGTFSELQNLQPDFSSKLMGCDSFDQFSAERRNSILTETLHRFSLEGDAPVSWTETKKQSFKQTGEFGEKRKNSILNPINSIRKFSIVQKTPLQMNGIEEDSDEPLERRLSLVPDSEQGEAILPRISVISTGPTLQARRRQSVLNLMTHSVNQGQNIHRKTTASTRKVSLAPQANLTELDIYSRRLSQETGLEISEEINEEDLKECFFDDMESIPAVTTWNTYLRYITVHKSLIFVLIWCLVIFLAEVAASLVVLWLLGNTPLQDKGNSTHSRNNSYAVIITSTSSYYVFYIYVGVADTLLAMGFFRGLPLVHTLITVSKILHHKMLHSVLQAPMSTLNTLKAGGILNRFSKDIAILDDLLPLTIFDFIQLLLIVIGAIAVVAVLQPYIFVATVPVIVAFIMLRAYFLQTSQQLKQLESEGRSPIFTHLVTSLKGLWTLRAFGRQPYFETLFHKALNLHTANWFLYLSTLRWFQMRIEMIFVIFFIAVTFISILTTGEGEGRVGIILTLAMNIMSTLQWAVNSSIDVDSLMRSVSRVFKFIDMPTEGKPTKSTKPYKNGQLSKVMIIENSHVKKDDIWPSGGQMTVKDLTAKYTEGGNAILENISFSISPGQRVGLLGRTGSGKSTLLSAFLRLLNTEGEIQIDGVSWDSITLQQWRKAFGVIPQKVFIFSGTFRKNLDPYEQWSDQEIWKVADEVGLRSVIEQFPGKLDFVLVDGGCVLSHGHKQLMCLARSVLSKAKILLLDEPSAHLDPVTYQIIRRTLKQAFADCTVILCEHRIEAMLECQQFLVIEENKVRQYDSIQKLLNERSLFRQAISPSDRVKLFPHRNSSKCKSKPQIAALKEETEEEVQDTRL

**Q.** For `[2H]C([2H])([2H])C([2H])(COc1cc(F)cc(-c2ccc(C(=O)NS(=O)(=O)c3cccc(N)n3)c(N3C[C@@H](C)CC3(C)C)n2)c1)C([2H])([2H])[2H]` [Compound 2708, N-[(6-amino-2-pyridyl)sulfonyl]-6-[3-fluoro-5-[2,3,3,3-tetradeuterio-2-(trideuteriomethyl)propoxy]phenyl]-2-[(4S)-2,2,4-trimethylpyrrolidin-1-yl]pyridine-3-carboxamide], which EC30 is on record?
**A.** +++ (“+++” means <3 uM)

**Q.** With `C[C@@H]1CN(c2ncccc2C(=O)NS(=O)(=O)N2CC[C@@H](NCCCc3ccc(Cl)cc3)C2)C(C)(C)C1` [Compound 2710] as the compound, how does the EC30 (read-out: EC30) read?
**A.** 3000 to 10000 nM

**Q.** How did the EC30 (read-out: EC30) turn out when `C[C@@H]1CN(c2nc(-n3ccc(-c4ccccn4)n3)ccc2C(=O)NS(=O)(=O)C2CC2)C(C)(C)C1` [Compound 2711] was run?
**A.** 3000 to 10000 nM

**Q.** `COc1ccc(CNc2cccc(S(=O)(=O)NC(=O)c3ccc(C(C)(C)C)nc3N3CC(C)CC3(C)C)n2)cc1` (stereo not shown) [Compound 2712] was tested. Which EC30 (read-out: EC30) did it give?
**A.** < 3000 nM

**Q.** Which EC30 (read-out: EC30) does the source give for `COc1ccc(COc2cccc(S(=O)(=O)NC(=O)c3ccc(C(C)(C)C)nc3N3CC(C)CC3(C)C)n2)cc1` (stereo not shown) [Compound 2713] here?
**A.** < 3000 nM

**Q.** `CC1CN(c2nc(C(C)(C)C)ccc2C(=O)NS(=O)(=O)c2cccc(OCc3ccc4c(c3)OCO4)n2)C(C)(C)C1` (stereo not shown) [Compound 2714] was tested. Which EC30 (read-out: EC30) did it give?
**A.** < 3000 nM

**Q.** With `C/C=C/COc1cccc(S(=O)(=O)NC(=O)c2ccc(C(C)(C)C)nc2N2CC(C)CC2(C)C)n1` (stereo not shown) [Compound 2715] as the compound, how does the EC30 (read-out: EC30) read?
**A.** < 3000 nM

**Q.** With `CC(C)CCOc1cccc(S(=O)(=O)NC(=O)c2ccc(C(C)(C)C)nc2N2CC(C)CC2(C)C)n1` (stereo not shown) [Compound 2716] as the compound, how does the EC30 (read-out: EC30) read?
**A.** < 3000 nM

**Q.** For `CC1CN(c2ncccc2C(=O)NS(=O)(=O)c2cccc(OCc3c(F)cccc3Cl)n2)C(C)(C)C1` (stereo not shown) [Compound 2717], which EC30 (read-out: EC30) is on record?
**A.** < 3000 nM

**Q.** With `CC1CN(c2ncccc2C(=O)NS(=O)(=O)c2cccc(Oc3cccc(C(F)(F)F)c3)n2)C(C)(C)C1` (stereo not shown) [Compound 2718] as the compound, how does the EC30 (read-out: EC30) read?
**A.** < 3000 nM

**Q.** With `CC1CN(c2ncccc2C(=O)NS(=O)(=O)c2cccc(Oc3cc(F)cc(Cl)c3)n2)C(C)(C)C1` (stereo not shown) [Compound 2719] as the compound, how does the EC30 (read-out: EC30) read?
**A.** < 3000 nM

**Q.** How did the EC30 (read-out: EC30) turn out when `CC1CN(c2ncccc2C(=O)NS(=O)(=O)c2cccc(Oc3cccc(Cl)c3Cl)n2)C(C)(C)C1` (stereo not shown) [Compound 2720] was run?
**A.** < 3000 nM

**Q.** `CC1CN(c2ncccc2C(=O)NS(=O)(=O)c2cccc(OCCc3ccccc3)n2)C(C)(C)C1` (stereo not shown) [Compound 2721] was tested. Which EC30 (read-out: EC30) did it give?
**A.** < 3000 nM

**Q.** `COc1ccc(OC)c(CNc2cccc(S(=O)(=O)NC(=O)c3cccnc3N3CC(C)CC3(C)C)n2)c1` (stereo not shown) [Compound 2722] was tested. Which EC30 (read-out: EC30) did it give?
**A.** < 3000 nM

**Q.** `CCCN(CC1CC1)c1cccc(S(=O)(=O)NC(=O)c2cccnc2N2CC(C)CC2(C)C)n1` (stereo not shown) [Compound 2723] was tested. Which EC30 (read-out: EC30) did it give?
**A.** < 3000 nM

**Q.** How did the EC30 (read-out: EC30) turn out when `CC1CN(c2ncccc2C(=O)NS(=O)(=O)c2cccc(Oc3cccc(C#N)c3)n2)C(C)(C)C1` (stereo not shown) [Compound 2725] was run?
**A.** < 3000 nM

**Q.** Which EC30 (read-out: EC30) does the source give for `CCN(CC)c1cccc(S(=O)(=O)NC(=O)c2cccnc2N2CC(C)CC2(C)C)n1` (stereo not shown) [Compound 2726] here?
**A.** < 3000 nM

**Q.** Which EC30 (read-out: EC30) does the source give for `CC1CN(c2ncccc2C(=O)NS(=O)(=O)c2cccc(Oc3ccc4nonc4c3)n2)C(C)(C)C1` (stereo not shown) [Compound 2727] here?
**A.** < 3000 nM

**Q.** For `COC(=O)c1ccc(Oc2cccc(S(=O)(=O)NC(=O)c3cccnc3N3CC(C)CC3(C)C)n2)cc1` (stereo not shown) [Compound 2728], which EC30 (read-out: EC30) is on record?
**A.** < 3000 nM

**Q.** How did the EC30 (read-out: EC30) turn out when `Cc1nc2cc(Oc3cccc(S(=O)(=O)NC(=O)c4cccnc4N4CC(C)CC4(C)C)n3)ccc2s1` (stereo not shown) [Compound 2729] was run?
**A.** < 3000 nM

**Q.** With `CC(=O)c1ccc(Oc2cccc(S(=O)(=O)NC(=O)c3cccnc3N3CC(C)CC3(C)C)n2)cc1` (stereo not shown) [Compound 2730] as the compound, how does the EC30 (read-out: EC30) read?
**A.** 3000 to 10000 nM

**Q.** For `Cc1cccc(Oc2cccc(S(=O)(=O)NC(=O)c3cccnc3N3CC(C)CC3(C)C)n2)n1` (stereo not shown) [Compound 2731], which EC30 (read-out: EC30) is on record?
**A.** 3000 to 10000 nM

**Q.** `COC1CCN(c2cccc(S(=O)(=O)NC(=O)c3cccnc3N3CC(C)CC3(C)C)n2)CC1` (stereo not shown) [Compound 2732] was tested. Which EC30 (read-out: EC30) did it give?
**A.** 3000 to 10000 nM

**Q.** Which EC30 (read-out: EC30) does the source give for `CC1CN(c2ncccc2C(=O)NS(=O)(=O)c2cccc(Oc3ccc4c(c3)CCC4=O)n2)C(C)(C)C1` (stereo not shown) [Compound 2733] here?
**A.** 3000 to 10000 nM

**Q.** For `COCCCN(C)c1cccc(S(=O)(=O)NC(=O)c2cccnc2N2CC(C)CC2(C)C)n1` (stereo not shown) [Compound 2734], which EC30 (read-out: EC30) is on record?
**A.** 3000 to 10000 nM

— patent publication US10758534B2 (Vertex Pharmaceuticals Incorporated, priority 2014, dated 2020)
